Experimental data as given in patent US20260058014A1, “CHARACTERIZATION OF TUMOR HET[…] A […]” (Foundation Medicine, Inc., priority 2022, published 2026).

System: EGFR driver alteration-positive NSCLC patients
Experiment: Progression free survival from start of 1st line Osimertinib in a real-world clinico-genomic NSCLC cohort stratified by tumor heterogeneity score
Type: in vivo, human
Source text: Starting with a patient cohort of 15,035 patients, the data was filtered (for biopsy type and bait set). The data was then filtered to exclude data for patients for whom a computational tumor purity was less than or equal to 20% or for whom a computational tumor purity value was missing. The remaining patient data was divided according to whether the samples were early-stage specimens, late-stage specimens, or of ambiguous origin. For the late-stage specimens, data for patients who were first diagnosed prior to Jan. […] Finally, data was selected for N=135 1st line Osimertinib-treated, EGFR driver alteration-positive NSCLC patients for whom tumor samples were sequenced at most a year prior to start of therapy.
The group of 135 patients were then divided into three tertiles with 45 patients each. […] For patients without a subsequent line of therapy, the event date was the earliest progression event that occurred more than 14 days after the index date, or the date of death. • Censor date: patients with a subsequent line of therapy were censored at their last clinic note date if it occurred between the index date and the start date of the subsequent line of therapy plus 14 days. […]

With `C=CC(=O)Nc1cc(Nc2nccc(-c3cn(C)c4ccccc34)n2)c(OC)cc1N(C)CCN(C)C` [Osimertinib] as the molecule, how does the mPFS (Score category High, EGFR CCF category Low, N=12) read?
The mPFS was 6.54.

What about the mPFS (Score category Low, EGFR CCF category High, N=39) of the same molecule?
Its mPFS is 16.01.
